How the values were obtained:
[1] = target: T1, CD40–CD154 (CD40L) (Homo sapiens, UniProt P29965); set-up: method as in PMID 29024591; details: 95% CI of 235–401; read-out: CD40–CD154 IC50 (previous assessment); cited from earlier work
T1 construct: purchased Enzo Life Sciences
T1 sequence (P29965 116-261 limits assumed): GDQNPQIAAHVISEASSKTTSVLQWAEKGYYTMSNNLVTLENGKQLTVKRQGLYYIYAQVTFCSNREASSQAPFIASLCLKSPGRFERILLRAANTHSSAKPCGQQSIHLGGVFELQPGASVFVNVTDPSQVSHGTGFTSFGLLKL

[2] = MTS cytotoxicity assay in HEK Blue cells; assay type: cell-based; details: human, HEK Blue CD40 sensor cells; HEK Blue cells, 24 h; read-out: LC50 (cytotoxicity, MTS)
Text: (§1) As further confirmation of the inhibitory activity of our compounds, a cell-based assay was used with sensor cells (HEK Blue CD40) containing a secreted embryonic alkaline phosphatase (SEAP) reporter gene under the control of a promoter fused to a NF-κB binding site and transfected with CD40. […] For all tested compounds, the corresponding IC50 values are higher than those determined in the cell-free binding inhibition assay (Table 1) representing a loss of activity which is likely due to non-specific binding on account of the presence of proteins and cells in the assay, as well as hydrophobicity-related problems. Cytotoxicities were also evaluated in these same cells and at the same concentrations using a standard MTS assay to ensure that effects are present at non-toxic concentration levels.
(§2) For the MTS assay, HEK Blue cells were cultured and prepared in the same manner as in the CD40 sensor assay. Then cells were added to a 96-well microtiter plate at a density of 50,000 cells/well in the absence or presence of various concentrations of compounds diluted in the same media, without the addition of CD154. The plate was incubated at 37 °C for 24 h. 20 µL per well of MTS, 3-(4,5-dimethylthiazol-2-yl)-5-(3-carboxymethoxyphenyl)-2-(4-sulfophenyl)-2H-tetrazolium, (Promega, Madison, WI, USA) was added to the culture after treatments, and cells were incubated at 37 °C for 4 h. Formazan levels were measured using a plate reader at 490 nm.
(§3) All binding inhibition and cell assays were tested in duplicate or triplicate per plates, and assays were performed as at least three independent experiments. As before, binding and cytotoxicity data were converted to percent inhibition and fitted with standard log inhibitor vs. normalized response models using nonlinear regression in GraphPad Prism (GraphPad, La Jolla, CA, USA) to establish half-maximal (median) inhibitory concentration (IC50) or median lethal concentration (LC50) values. Cell assay data were fitted with a similar model that also allowed for a variable slope using the log inhibitor vs. normalized response (variable slope) model from Prism with a Hill slope (n) shared across all compounds. Cell assays and draining lymph node data were analyzed by one-way repeated-measures analysis of variance (ANOVA) followed by Dunnett’s multiple comparison test as a post hoc test for individual differences using GraphPad Prism and a significance level of p < 0.05 for all comparisons.

[3] = test system: HEK Blue cells; experiment: MTS cytotoxicity assay in HEK Blue cells; assay type: cell-based; details: LC50 (MTS) / NF-κB IC50 in sensor cells
Text: as §1, §2, §3

Compound	IC50 [1] [µM]	CC50 at 24 h [2] [µM]	therapeutic index, TI = LC50/IC50 [3]
O=C(Nc1ccc(-c2ccc(C(=O)Nc3cccc4cccc(S(=O)(=O)O)c34)cc2)cc1)c1ccc([N+](=O)[O-])cc1 [Compound 6, 8-(4′-(4-Nitrobenzamido)biphenyl-4-ylcarboxamido)naphthalene-1-sulfonic acid]	0.307	–	–
O=C(Nc1ccc(-c2ccc(C(=O)Nc3cccc4cccc(S(=O)(=O)O)c34)cc2)nc1)c1ccc([N+](=O)[O-])cc1 [Compound 18, 8-(4-(5-(4-Nitrobenzamido)pyridin-2-yl)benzamido)naphthalene-1-sulfonic acid]	–	131	15

Reference: article PMC5978685, “Design, Synthesis, and Evaluation of Novel Immunomodulatory Small Molecules Targeting the CD40–CD154 Costimulatory Protein-Protein Interaction” (Molecules : A Journal of Synthetic Chemistry and Natural …, 2018)
